How the values were obtained:
CXCR7 receptor [1] = molecular target: T1, CXCR7 receptor (Homo sapiens (Human), UniProt P25106); experiment: Serum Binding Analysis: displacement of 125I-labeled SDF-1 from CXCR7 in 100% human serum; conditions: 125I SDF-1 displacement in 100% human serum, MCF-7 and/or MDA-MB-435S CXCR7 transfected cells, 3 hrs at 4° C.; read-out: Avg Ser IC50
Description: (§1) The compounds were combined with cells expressing the CXCR7 receptor (e.g., MCF cells or cells transfected to express CXCR7) in the presence of the 125 I-labeled SDF-1 chemokine as detailed in Determination of IC50 values. Reagents and Cells (see below). The ability of the compounds to displace the labeled chemokine from the CXCR7 receptor sites at multiple concentrations was then determined with the screening process.
In Table 1, Avg Bind IC50 refers to the Buffer Binding Analysis described below, while Avg Ser IC50 refers to the Serum Binding Analysis described below. All compounds were prepared as described in the Examples above, or by related methods substituting readily available starting materials.
(§2) ^125I-labeled SDF-1 was purchased from Perkin-Elmer Life Sciences, Inc. (Boston, Mass.). The MCF-7 (adenocarcinoma; mammary gland) cell line was obtained from the American Type Culture Collection (ATCC, Manassas, Va.) or and was cultured in DMEM (Mediatech, Herndon, Va.) supplemented with 10% fetal bovine serum (FBS) (HyClone Logan, Utah) and bovine insulin (0.01 mg/mL) (Sigma. St. Louis, Mo.) at 37° C. in a humidified incubator at a 5% CO2/air mixture. CXCR7 transfected MDA-MB-435S were produced as described below. MDA-MB-435S human breast cancer line, was purchased from ATCC, and cultured in DMEM/10% FBS medium. The complete coding sequence of the gene encoding CXCR7 (a.k.a. CCXCKR2, hRDC1), was isolated from MCF-7 cells using μMACs mRNA isolation kit (Miltenyi Biotec, Auburn, Calif.). DNA contamination was removed by DNase digestion via RNeasy columns (Qiagen, Inc., Valencia, Calif.) and cDNA was generated using GeneAmp RNA PCR Core Kit (Applied Biosystems, Foster City. Calif.). PCR of cDNA samples was performed using Taq PCR Master Mix kit (Qiagen. Inc.) and hRDC1 primers harboring 5′ and 3′ Not I sites (hRDC1F 5′ […]-3, hRDC1R 5′-[…]-3′) Not I digested PCR product was ligated into Not I digested pcDNA3.1(+)(Invitrogen, Carlsbad, Calif.) and screened for orientation and sequence confirmed. Plasmid DNA was then isolated from overnight bacterial cultures by Maxiprep (Qiagen, Inc.). Plasmid DNA (10 μg) was added to MDA-MB-435s cells and cells were electroporated (0.22 kV, 960 uF) via Gene Pulser (Biorad laboratories, Hercules, Calif.). 48 hr post-electroporation, cells were transferred to selection medium (600 ug/ml G418).
In order to more properly assess the binding efficacy of the compounds, radioligand binding assays were carried out in the presence of 100% human serum to more accurately reflect the in vivo environment. […] Target compounds were tested to determine their ability to bind with CXCR7 sites on MCF-7 and/or MDA-MB-435S CXCR7 transfected cells. Efficiency-maxim/zed radioligand binding using filtration protocols as described in Dairaghi D J, et al., HHV8-encoded vMIP-I selectively engages chemokine receptor CCR5. Agonist and antagonist profiles of viral chemokines., J. Biol. Chem. 1999 Jul. 30; 274(31): 21569-74 and Gosling J, et al., Cutting edge: identification of a novel chemokine receptor that binds dendritic cell- and T cell-active chemokines including ELC, SLC, and TECK, J. Immunol. 2000 Mar. 15; 164(6):2851-6 was used.
In these assays, MCF-7 and/or MDA-MB-435S cells were interrogated with the target compounds and the ability of these compounds to displace 125 I radiolabeled SDF-1 was assessed using the protocol described in Dairaghi and Gosling. The target compounds were added to the plate to the indicated concentration followed by addition of cells and radiolabeled chemokine (125I SDF-1), both in the following medium (human AB serum with 10 mM HEPES added to stabilize at pH 7.4). All assays were then incubated for 3 hrs at 4° C. with gentle agitation.

CXCR7 receptor [2] = molecular target: T1, CXCR7 receptor; experiment: Buffer Binding Analysis: displacement of 125I-labeled SDF-1 from CXCR7; conditions: 125I SDF-1 displacement, buffer binding medium, MCF-7 and/or MDA-MB-435S CXCR7 transfected cells, 3 hr at 4° C.; read-out: Avg Bind IC50
Description: as §1
Compounds that were deemed effective modulators were able to displace at least 50% of the SDF-1 from the CXCR7 receptor at concentrations at or below 15 micromolar (μM) but >2500 nM (+); and more preferably at concentrations from >500 nM to ≤2500 nM (++). At present, especially preferred compounds can displace at least 50% of the SDF-1 from the CXCR7 receptor at concentrations at or below 500 nM (+++). Exemplary compounds that met these criteria are reproduced in Table 1 and the Examples above. In Table 1, Avg Bind IC50 refers to the Buffer Binding Analysis described below, while Avg Ser IC50 refers to the Serum Binding Analysis described below. All compounds were prepared as described in the Examples above, or by related methods substituting readily available starting materials.
as §2
Target compounds can be tested to determine their ability to bind with CXCR7 sites on MCF-7 and/or MDA-MB-435S CXCR7 transfected cells. Efficiency-maxim/zed radioligand binding using filtration protocols as described in Dairaghi D J, et al., HHV8-encoded vMIP-I selectively engages chemokine receptor CCR5. Agonist and antagonist profiles of viral chemokines., J. Biol. Chem. 1999 Jul. 30; 274(31): 21569-74 and Gosling J. et al., Cutting edge: identification of a novel chemokine receptor that binds dendritic cell-and T cell-active chemokines including ELC. SLC, and TECK., J. Immunol. 2000 Mar. 15; 164(6):2851-6 was used.
In these assays, MCF-7 and/or MDA-MB-435S cells are interrogated with the target compounds and the ability of these compounds to displace ^125I radiolabeled SDF-1 assessed using the protocol described in Dairaghi and Gosling. […]

T1 sequence (P25106 whole entry): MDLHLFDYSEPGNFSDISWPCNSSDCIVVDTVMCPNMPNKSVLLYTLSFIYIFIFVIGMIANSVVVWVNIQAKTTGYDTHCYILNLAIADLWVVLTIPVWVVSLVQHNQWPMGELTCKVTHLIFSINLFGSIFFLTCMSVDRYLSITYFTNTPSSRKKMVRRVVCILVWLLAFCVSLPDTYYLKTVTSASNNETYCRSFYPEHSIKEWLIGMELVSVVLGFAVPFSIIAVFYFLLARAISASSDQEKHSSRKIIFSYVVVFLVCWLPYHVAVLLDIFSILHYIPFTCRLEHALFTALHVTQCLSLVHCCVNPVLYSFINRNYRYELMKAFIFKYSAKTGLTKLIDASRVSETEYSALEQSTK

Row | Structure (SMILES) | IC50 (CXCR7 receptor [1]) | IC50 (CXCR7 receptor [2])
1 | CC(C)c1cnc(C(=O)NC2(CO)CCN(c3nccn4cccc34)C2)nc1 (centres unmarked) [Compound 1.060] | ≤ 500 nM | –
2 | CC(C)c1cnc(C(=O)N[C@H]2CCN(c3nccn4cnnc34)C2)nc1 [Compound 1.061] | 500 to 2500 nM | –
3 | O=C(NC1CN(c2nccn3cccc23)C[C@@H]1O)c1ccn(-c2ccc(F)cc2)n1 (some centres unmarked) [Compound 1.062] | ≤ 500 nM | –
4 | Cc1cnc(C(=O)N[C@H]2CCN(c3nccn4cccc34)C2)nc1 [Compound 1.063] | 500 to 2500 nM | –
5 | CCc1cnc(C(=O)N[C@H]2CCN(c3nccn4cccc34)C2)nc1 [Compound 1.065] | ≤ 500 nM | –
6 | O=C(N[C@H]1CCN(c2nccn3ncnc23)C1)c1ccn(-c2ccc(F)cc2)n1 [Compound 1.067] | ≤ 500 nM | –
7 | O=C(N[C@H]1CCN(c2nccn3cccc23)C1)c1ncc(C2CC2)cn1 [Compound 1.071] | ≤ 500 nM | –
8 | O=C(NC1(CO)CCN(c2nccn3cccc23)C1)c1csc(N2CCC(O)CC2)n1 (centres unmarked) [Compound 1.072] | ≤ 500 nM | –
9 | O=C(NC1(CO)CCN(c2nccn3cccc23)C1)c1ccn(-c2ccc(F)cc2)n1 (centres unmarked) [Compound 1.073] | ≤ 500 nM | –
10 | O=C(NC1(CO)CCN(c2nccn3cccc23)C1)c1ccn(-c2ccc(Cl)cc2)n1 (centres unmarked) [Compound 1.074] | ≤ 500 nM | –
11 | O=C(N[C@H]1CCN(c2nccn3cccc23)C1)c1ncc(-c2ccc(F)cc2)cn1 [Compound 1.076] | ≤ 500 nM | ≤ 500 nM
12 | CC(C)c1cnc(C(=O)N[C@H]2CCN(c3nccn4cccc34)C2)nc1 [Compound 1.077] | ≤ 500 nM | ≤ 500 nM
13 | O=C(N[C@H]1CCN(c2nccn3cnnc23)C1)c1csc(N2CCC(O)CC2)n1 [Compound 1.078] | ≤ 500 nM | ≤ 500 nM
14 | O=C(N[C@H]1CCN(c2nccn3cccc23)C1)c1noc(C2CCOCC2)n1 [Compound 1.082] | 500 to 2500 nM | ≤ 500 nM
15 | Cc1ccc2nc(C(=O)N[C@H]3CCN(c4nccn5cccc45)C3)ncc2c1 [Compound 1.085] | ≤ 500 nM | ≤ 500 nM
16 | O=C(N[C@H]1CCN(c2nccn3cnnc23)C1)c1ccn(C2CCOCC2)n1 [Compound 1.087] | 500 to 2500 nM | 2500 to 15000 nM
17 | O=C(N[C@H]1CCN(c2nccn3cccc23)C1)c1ccn(C2CCOCC2)n1 [Compound 1.088] | ≤ 500 nM | ≤ 500 nM
18 | O=C(N[C@H]1CCN(c2nccn3cnnc23)C1)c1ncn(-c2ccc(F)cc2)n1 [Compound 1.089] | ≤ 500 nM | ≤ 500 nM

The next lines start with the values.

Row | IC50 (CXCR7 receptor [1]) | IC50 (CXCR7 receptor [2]) | Structure (SMILES)
19 | ≤ 500 nM | – | CC(C)c1cnc(C(=O)N[C@H]2CCN(c3nccn4ccnc34)C2)nc1 [Compound 1.064]
20 | ≤ 500 nM | – | O=C(N[C@H]1CCN(c2nccn3cnnc23)C1)c1csc(-c2ccccc2)n1 [Compound 1.066]
21 | ≤ 500 nM | – | O=C(N[C@H]1CCN(c2nccn3cnnc23)C1)c1coc(-c2ccccc2)n1 [Compound 1.069]
22 | ≤ 500 nM | – | O=C(N[C@H]1CCN(c2nccn3ccnc23)C1)c1coc(-c2ccccc2)n1 [Compound 1.070]
23 | 2500 to 15000 nM | 500 to 2500 nM | O=C(N[C@H]1CCN(c2nccn3ccnc23)C1)c1cnc(N2CCC(O)CC2)cn1 [Compound 1.075]
24 | ≤ 500 nM | ≤ 500 nM | O=C(N[C@H]1CCN(c2nccn3ccnc23)C1)c1csc(N2CCC(O)CC2)n1 [Compound 1.079]
25 | 500 to 2500 nM | ≤ 500 nM | Cc1ccccc1-c1nc(C(=O)N[C@H]2CCN(c3nccn4cccc34)C2)co1 [Compound 1.080]
26 | 500 to 2500 nM | ≤ 500 nM | O=C(N[C@H]1CCN(c2nccn3cccc23)C1)c1ccn(-c2ccc(Cl)cn2)n1 [Compound 1.081]
27 | 500 to 2500 nM | ≤ 500 nM | O=C(N[C@H]1CCN(c2nccn3cccc23)C1)c1nnc(-c2ccccc2)[nH]1 [Compound 1.083]
28 | ≤ 500 nM | ≤ 500 nM | O=C(N[C@H]1CCN(c2nccn3cnnc23)C1)c1ccn(-c2ccc(F)cc2)n1 [Compound 1.084]
29 | 500 to 2500 nM | 500 to 2500 nM | O=C(N[C@H]1CCN(c2nccn3ccnc23)C1)c1ccn(C2CCOCC2)n1 [Compound 1.086]
